Consider two compounds from patent US10189824B2, “Pyrimidine-diamine dual HSP90/TRAP1 inhibitors” (CalAsia Pharmaceuticals, Inc., priority 2014, dated 2019).

One assay relates to U251MG cells. In words: Cell viability assay, cellular dehydrogenase activity (CCK-8). The format is cell-based. The following applies: Homo sapiens, U-251; 72 h at 37° C.; FIG. 1A. The protocol: U251MG cells were maintained at 37° C. and 5% CO2 in RPMI media supplemented with glutamax and containing 10% heat-inactivated fetal bovine serum and 1% penicillin/streptomycin (Life Sciences).
A cell counting kit (CCK-8 assay kit, Dojindo) and an ADP-Glo assay (Life Technologies) were used to quantitate the effects of test compounds on cell viability. U251MG cells were seeded into 96 well tissue culture plates and incubated for 16 h at 37° C. with 5% CO2. Increasing concentrations of test compounds were added to the wells from DMSO-containing stock solutions to a final DMSO concentration of 0.05% and incubated for 72 hr at 37° C. CCK-8 kit reagent or ADP-GLO reagent were then added to the wells and absorbance was measured at 450 nm (for the CCK assay) using a Synergy HT micro-titer plate reader (Biotek) or luminescence was measured (for the ADP-GLO assay) using a POLARstar Omega micro-titer plate reader (BMG).

Assay [1] relates to caspase 3/7 activity in U251MG cells. In words: Caspase activation assay (Caspase-3/7 luminescence). The following applies: 48 h. The format is cell-based. The protocol:
U251MG cells were seeded, maintained, and treated with test compounds as described above for 48 h at 37° C. Quantification of total cellular Caspase-3 and 7 activity was accomplished using a Caspase-3/7 luminescence assay kit (Promega) according to the manufacturer's recommendations and analyzed with a POLARstar Omega micro-titer plate reader (BMG).

For assay [2], the system named is EGFR levels in U251MG cells. In words: Biomarker quantitation by ELISA, EGFR. The format is cell-based. The following applies: 16 uM, 48 h. The protocol:
U251 cells were plated in 6 well format culture dishes overnight at 37° C. with 5% CO2 and then treated with increasing concentrations of test compounds for 48 h at 37° C. with 5% CO2. Quantification of total Akt1, EGFR, and Hsp70 in cell lysates was accomplished using ELISA kits (R&D Systems) according to the manufacturer's recommendations and utilizing a Synergy HT micro-titer plate reader (Biotek). Cell lysates were prepared as recommended in the kit procedure. Protein concentrations of lysates clarified using centrifugation were determined using a Bradford assay (Thermo Scientific), and the values were used to normalize the biomarker values.
For orientation: An ELISA detects its analyte on a solid surface through an enzyme-linked reagent.

The subject of assay [3] is mitochondria isolated from U251MG cells. In words: TMRE assay, TMRE-loaded isolated mitochondria. The format is cell-based. The following applies: 30° C. As for the experimental part: For cell-based assays, cells were treated with various concentrations of the test compounds for 48 hours at 37° C., with 5% CO2. TMRE (200 nM) was then added to wells for 30 min and monitored for changes in fluorescence activity either by fluorescence microscopy using an inverted Zeiss LSM 710 confocal microscope or by spectrophotometry using a fluorescence plate reader (544ex/590em) after washing the cells. Specific TMRE fluorescence was calculated by comparison to matched wells pretreated with 20 uM FCCP for 10 min prior to addition of TMRE. For mitochondria assays, untreated U251MG cells grown to confluence in T75 culture flasks. Mitochondria from these cells were isolated using a mitochondria isolation kit (Thermo Scientific) and loaded with 0.1 mM TMRE in kit buffer at 37° C. for 20 min. After washing, the TMRE-loaded mitochondria (2 ug per well) were incubated in a 96 well black plate with test compounds and monitored kinetically at 30° C. for changes in fluorescence using a fluorescence plate reader (ex 544/em 590). The fluorescence intensity after treatment with 20 um FCCP in control wells corresponded to a fully depolarized state.

For the next assay, the system named is GBM10. In words: Cellular efficacy in Mayo Clinic GBM PDX cell line GBM10. The format is cell-based. The protocol:
(§1) Short-term explant cultures from PDX models were seeded into 96-well Perfecta3D hanging drop plates to form a single spheroid in each well after 2 days. The spheroids were transferred to a round bottom 96 well plate by centrifugation and then incubated with graded concentrations of test compound (8 spheroids per compound concentration). Spheroid volumes were monitored every 6 hours over the course of 5 days using the IncuCyte system (Essen BioScience, MI, US) to provide a growth curve akin to a tumor regrowth assay.

The subject of the next assay is GBM39. In words: Cellular efficacy in Mayo Clinic GBM PDX cell line GBM39. The format is cell-based. As for the experimental part:
as §1

Assay [4] deals with Hsp90 client proteins (Akt1, ERK1) in MDA-MB-231 cell line. In words: Cellular biomarker assays (Akt1, ERK1 ELISA) in MDA-MB-231. Format: cell-based. The following applies: 48 hours. The protocol: (§2) Cellular biomarker assays: Cells were cultured in culture medium (RPMI-glutamax, 10% FCS, 100 units/ml penicillin, and 100 μg/ml streptomycin). Cells were passaged after lifting using 0.25% trypsin/EDTA, and 3×10^5 cells were seeded in each well of six well plates (total volume 2.5 mL/well). After the cells were cultured for 24 hours, increasing concentrations of Hsp90 inhibitor were added to wells in triplicate from DMSO-containing stock solutions and mixed by gently by stirring. Final DMSO concentration in all wells was 0.25%. The treated cells were then cultured for 48 hours prior to lysate preparation. The culture media was removed from wells, and the wells were washed twice with DPBS containing 1 mM CaCl2 and 0.5 mM MgCl2. […] The protein concentration in the cell lysates was determined using the BCA protein assay kit used according to the manufacturer's recommendations. […] Protein concentrations were determined using a micro-titer plate reader (Model # Synergy HT; BioTek Inc., Winooski, Vt.).
(§3) Akt1 and ERK1 levels in the cell lysates were measured using kits from R&D Systems used according to the manufacturer's recommendations. […] Akt1 and ERK1 levels were determined using a micro-titer plate reader (Model # Synergy HT; BioTek Inc., Winooski, Vt.) (FIGS. 5 and 8).

For assay [5], the system named is Hsp90 client proteins (Akt1, ERK1) in HEI193. In words: Cellular biomarker assays (Akt1, ERK1 ELISA) in HEI193. Format: cell-based, human. The following applies: 48 hour treatment. As for the experimental part:
as §2, §3

SMILES strings stand for the structures. pEC50, pIC50: −log10 of the molar value.

Take `COc1c(C)cnc(CN(CCc2ccccn2)c2cc(Cl)nc(N)n2)c1C` [Compound 1, 6-chloro-4-N-[(4-methoxy-3,5-dimethylpyridin-2yl)methyl]-4-N-[2-(pyridine-2-yl)ethyl]pyrimidine-2,4-amine]: the negative-log IC50 (pIC50) (usually the IC50 on a negative log10 scale, so that one unit is a factor of ten) in the assay on U251MG cells was 5.76. For the same compound, the “U251MG caspase 3/7 activity increase” value in assay [1] (50 uM) amounted to 6.8 fold. Besides, in assay [1] (U251MG), the “Lowest concentration at which an increase in caspase activity was observed” value turned out to be 1.6 µM. Moreover, in assay [2], the “Reduction of EGFR levels” value amounted to 71%. The entries for the “Membrane potential of isolated mitochondria reduced to” value in assay [3] (4 uM) and in assay [3] (20 uM) were 61% and 52%, respectively.

`COc1c(C)cnc(CN(CC2(c3ccc(F)cc3)CCOCC2)c2cc(Cl)nc(N)n2)c1C` [Compound A, 6-chloro-4-N-{[4-(4-fluorophenyl)oxan-4-yl]methyl}-4-N-[(4-methoxy-3,5-dimethylpyridin-2-yl)methyl]pyrimidine-2,4-diamine]: the pEC50 (commonly the negative decadic logarithm of the EC50, by convention in mol/L) in the assay with GBM10 was 6.55; in the assay on GBM39, 6.66. Besides, in assay [4], the “Effect on Akt1 and ERK1 levels, MDA-MB-231” value is “suppression of Hsp90 client proteins”. Besides, in assay [5], the “Effect on Akt1 and ERK1 levels, HEI193” value is on record as “reduction of Hsp90 client proteins”.
